Measurements reported in patent US20240115574A1, “INHIBITION OF nSMase FOR THE TREATMENT OF HUMAN IMMUNODEFICIENCY VIRUS INFECTION” (The Johns Hopkins University, priority 2018, published 2024).
Where two headings read alike, the source gives them in different places.

Columns and labels:
[1] = target: nSMase2 (Homo sapiens (Human), UniProt Q9NY59); experiment: nSMase2 inhibition (Tables 1A, 1B); format: biochemical
[2] = system: HIV Rf in H9 cells; experiment: HIV replication in HIV-infected H9 cells, P24 ELISA of culture supernatants; format: cell-based; conditions: H9 cells infected with HIV, dose response
Description: Controls included no-treatment and vehicle. Cell viability and P24 were measured every 24 h for 4 days.

[3] = system: HIV1-Ada; experiment: HIV-infected humanized mice (hu-NSG), viral load and cell populations; format: in vivo
Description: Humanization of NSG mice was determined 20 weeks following transplantation by flow cytometry (Miltenyl Biotec) using human specific antibodies directed against hCD45-APC (Leukocytes; Thermo Fisher), hCD3-PE (T cells; Biolegend), hCD14-PE/Cy7 (Macrophage; Biolegend), hCD19-BV421 (B cells; Biolegend). Percent humanization was calculated as a ratio for each of the human antibodies to a mouse specific antibody directed against mCD45-FITC (eBioscience). Mice>5% humanization (in each cell category) were included for experiments.
Reaction included a non-template control, non-enzyme control and sample was analyzed on an Applied Biosystem 7300 Real-Time PCR system (Life Technology). […] The dissociation stage was 95° C. for 15 sec, 60° C. for 1 min and 95° C. for 15 sec.
Drugs were reconstituted in 5% DMSO, 5% Tween-80 and 90% saline. Control mice injected with vehicle consisting of 5% DMSO, 5% Tween-80 in saline.

[4] = system: HIV in U1 cells; experiment: HIV replication (p24) in TNF-α-stimulated U1 cells; format: cell-based; conditions: TNF-α 500 ng/mL, 0.1 μM-10 μM, 12 h, 24 h, 48 h
Description: (§1) Quantification of HIV replication (p24 levels) in medium (top) and cell viability (bottom) of H9 cells (FIG. 4A), U1 cells (FIG. 4B), and human primary CD4+ cells (FIG. 4C) treated with nSMase2 inhibitor, MS882 (31). […] HIV replication and cell viability were measured at 12 h, 24 h, and 48 h after treatment of MS882 (31). Data are mean±S.D of n=3 per independent experiments/condition. *=p<0.05; **=p<0.01; ***=p<0.001 compared to uninfected control (H9 cells, primary human CD4+ cells), or non-TNFα-induced control (U1 cells). #=p<0.05; ##=p<0.01; ###=p<0.001 compared to HIV-infected or TNF-α-induced cells. One-Way ANOVA with Tukey post-hoc comparisons;

[5] = system: HIV-MN in primary human CD4+ cells; experiment: HIV replication (p24) in human primary CD4+ cells; format: cell-based; conditions: HIV-MN 200 ng/mL, 0.1 μM-10 μM, 12 h, 24 h, 48 h
Description: as §1

[6] = system: H9 cells and U1 cells; experiment: Electron microscopy of HIV-infected H9 cells and TNF-α-stimulated U1 cells; format: cell-based; conditions: 10 μM for 6 h
Description: Representative electron microscope images of H9 cells (FIG. 6A) and U1 cells (FIG. 6B) treated with MS882 (31) (10 μM) for 6 h following HIV infection (H9 cells) or TNF-α stimulation (U1 cells). […] Scale bar, 1 μm;

[7] = system: ceramides; experiment: Plasma ceramides in HIV-infected humanized mice; format: in vivo; conditions: 10 mg/Kg for 6 weeks
Description: Quantifications of multiple ceramides in plasma from uninfected humanized mice, HIV-infected humanized mice administered MS882 (31) (10 mg/Kg) or vehicle for 6 weeks. Data are mean±S.D of n=4-6 per group. *=p<0.05; **=p<0.01; ***=p<0.001 compared to uninfected humanized mice #=p<0.05; ##=p<0.01 compared to HIV-infected mice administered vehicle. One-Way ANOVA with Tukey post-hoc comparisons; Experimental drugs were delivered intraperitoneally at a dose of 10 mg/kg once daily beginning 5 weeks after HIV infection for a duration of 6 weeks. Drugs were reconstituted in 5% DMSO, 5% Tween-80 and 90% saline. Control mice injected with vehicle consisting of 5% DMSO, 5% Tween-80 in saline.

[8] = system: HIV-1 Tat-regulated firefly luciferase reporter in TZM/Bl cells; conditions: dose response
[9] = nSMase2 inhibitors of formula (I), Table 1A, read-out: IC50
[10] = nSMase2, compounds of formula (II), Table 1B, read-out: Activity* (IC50 category)
[11] = daily administration for 6 weeks

nSMase2, sequence (Q9NY59 whole entry, species assumed): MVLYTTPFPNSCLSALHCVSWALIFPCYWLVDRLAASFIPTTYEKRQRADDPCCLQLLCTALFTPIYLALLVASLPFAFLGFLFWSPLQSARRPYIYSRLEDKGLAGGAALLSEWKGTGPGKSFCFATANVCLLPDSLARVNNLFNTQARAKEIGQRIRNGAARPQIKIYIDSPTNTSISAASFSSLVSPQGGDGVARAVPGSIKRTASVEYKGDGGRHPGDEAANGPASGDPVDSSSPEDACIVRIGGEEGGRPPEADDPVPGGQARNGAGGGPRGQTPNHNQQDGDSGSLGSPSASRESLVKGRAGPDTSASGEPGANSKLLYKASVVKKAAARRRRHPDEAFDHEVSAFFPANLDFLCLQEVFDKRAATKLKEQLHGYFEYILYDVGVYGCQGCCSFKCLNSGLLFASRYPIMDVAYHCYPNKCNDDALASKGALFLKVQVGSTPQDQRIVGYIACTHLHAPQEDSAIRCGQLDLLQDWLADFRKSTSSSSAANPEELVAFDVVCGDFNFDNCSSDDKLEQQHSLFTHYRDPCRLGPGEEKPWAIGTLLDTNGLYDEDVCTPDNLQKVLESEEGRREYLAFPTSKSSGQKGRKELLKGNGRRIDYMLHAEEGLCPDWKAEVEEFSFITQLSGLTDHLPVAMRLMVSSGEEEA

IC50 [1, 9] [µM]	IC50 [1, 10] [µM]	SMILES	also measured
≤ 1		CC(=O)N[C@@H]1CCN(c2cc(C)nn3c(-c4ccc5c(c4)OCO5)c(C)nc23)C1 [40-PROV]	
> 1		CC(=O)N[C@@H]1CCN(c2cc(C)nn3c(C)c(C)nc23)C1 [48-PROV]	
> 1		COc1cc(N2CC[C@@H](NC(C)=O)C2)c2nc(C)c(-c3ccc(OC)c(OC)c3)n2n1 [38-PROV]	
	> 100	COc1ccc(-c2csc3c(N4CC[C@@H](NC(C)=O)C4)nc(C)nc23)cc1OC [30-PROV]	
> 1		CC(=O)N[C@@H]1CCN(c2cc(C)nn3c(-c4cccc(S(C)(=O)=O)c4)c(C)nc23)C1 [42-PROV]	
≤ 1		CC(=O)N[C@@H]1CCN(c2cc(C)nn3c(-c4ccc(O)cc4)c(C)nc23)C1 [47-PROV]	
	> 100	COc1ccc(-c2scc3c(N4CC[C@@H](NC(C)=O)C4)nc(C)nc23)cc1OC [29b-PROV]	
	> 100	COc1ccc(-c2c(C)sc3c(N4CC[C@@H](NC(C)=O)C4)nc(C)nc23)cc1OC [29a-PROV]	

The remaining lines, values behind:

SMILES	IC50 [1, 9] [µM]	IC50 [1, 10] [µM]	also measured
CC(=O)N[C@@H]1CCN(c2cc(Cl)nn3c(-c4ccc(F)cc4)c(C)nc23)C1 [18-PROV]	> 100		
CC(=O)Nc1cccc(-c2c(C)nc3c(N4CC[C@@H](NC(C)=O)C4)cc(Cl)nn23)c1 [19-PROV]	> 100		
COc1ccc(-c2c(C)sc3c(N4CC[C@@H](NC(C)=O)C4)nc(Cl)nc23)cc1OC [25-PROV]		> 100	
CC(=O)N[C@@H]1CCN(c2ccnn3cc(C)nc23)C1 [15-PROV]	> 10		
COc1ccc(-c2scc3c(N4CC[C@@H](NC(C)=O)C4)nc(Cl)nc23)cc1OC [26-PROV]		> 100	
COc1ccc(-c2c(C)nc3c(N4CC[C@@H](NC(=O)C5CCCCC5)C4)cc(C)nn23)cc1 [Entry 31]			HIV replication (P24 ELISA of culture supernatants) ([2]; listed as MS822 (31)): dose-dependently reduced HIV replication; HIV replication (P24 ELISA of culture supernatants) ([2]; listed as MS882 (31)): suppressed HIV-replication; populations of human CD14+ macrophages ([3]; 10 mg/kg daily I.P. for 6 weeks): selectively decreased populations of CD14+ macrophages; HIV RNAs in tissues (spleen, lung, liver, brain), qRT-PCR for HIV1-p24 [3, 11]: decreased; HIV+ (p24+) macrophages (hCD14+) in spleen, lung, liver, brain [3, 11]: decreased; plasma HIV viral load ([3]; daily intraperitoneal administration, HIV-infected humanized mice): reduced plasma HIV viral load; mice with plasma HIV viral load reduced to below detectable levels ([3]; daily intraperitoneal administration, individual mice): 3 out of 5; HIV replication (p24 levels in medium) [4]: suppressed HIV-replication; HIV replication (p24 levels in medium) [5]: suppressed HIV-replication; endolysosomal morphology (electron microscopy) [6]: induced enlarged endolysosomal compartments engorged with EM-dense debris; multiple ceramides in plasma [7]: decreased elevations of multiple ceramides; luciferase activity in TZM/B1 cells [8]: reduced luciferase activity in TZM/B1 cells at the highest doses tested
COc1ccc(-c2csc3c(N4CC[C@@H](NC(C)=O)C4)nc(Cl)nc23)cc1OC [24-PROV]		> 100	
COc1cccc(-c2c(C)nc3c(N4CC[C@@H](NC(C)=O)C4)cc(C)nn23)c1 [20-PROV]	> 1		
CC(=O)Nc1cccc(-c2c(C)nc3c(N4CC[C@@H](NC(C)=O)C4)cc(C)nn23)c1 [22-PROV]	> 1		
COc1cccc(-c2c(C)nc3c(N4CC[C@@H](NC(C)=O)C4)cc(Cl)nn23)c1 [14-PROV]	> 100		
CC(=O)N[C@@H]1CCN(c2cc(C)nn3c(I)c(C)nc23)C1 [23-PROV]	> 10		
COc1ccc(-c2c(C)sc3c(N4CC[C@@H](NC(C)=O)C4)ncnc23)cc1OC [28-PROV]		> 100	
COc1ccc(-c2csc3c(N4CC[C@@H](NC(C)=O)C4)ncnc23)cc1OC [27-PROV]		> 100	
CC(=O)N[C@@H]1CCN(c2cc(Cl)nn3cc(C)nc23)C1 [9-PROV]	> 100		
COc1ccc(-c2c(C)nc3c(N4CC[C@@H](NC(C)=O)C4)cc(Cl)nn23)cc1 [11-PROV]	> 100		
